In article PMC7327383, “The affinity and selectivity of α‐adrenoceptor antagonists, antidepressants, and antipsychotics for the human α1A, α1B, and α1D‐adrenoceptors” (Pharmacology Research & Perspectives, 2020):
Read-outs that look alike come from different tables or passages of the source.

Columns and labels:
[1] = molecular target: T1, full-length human α1D-adrenoceptor (Homo sapiens, UniProt P25100); experiment: [3H]prazosin whole-cell competition binding, CHO-α1D cells
T1 sequence (P25100 1-572): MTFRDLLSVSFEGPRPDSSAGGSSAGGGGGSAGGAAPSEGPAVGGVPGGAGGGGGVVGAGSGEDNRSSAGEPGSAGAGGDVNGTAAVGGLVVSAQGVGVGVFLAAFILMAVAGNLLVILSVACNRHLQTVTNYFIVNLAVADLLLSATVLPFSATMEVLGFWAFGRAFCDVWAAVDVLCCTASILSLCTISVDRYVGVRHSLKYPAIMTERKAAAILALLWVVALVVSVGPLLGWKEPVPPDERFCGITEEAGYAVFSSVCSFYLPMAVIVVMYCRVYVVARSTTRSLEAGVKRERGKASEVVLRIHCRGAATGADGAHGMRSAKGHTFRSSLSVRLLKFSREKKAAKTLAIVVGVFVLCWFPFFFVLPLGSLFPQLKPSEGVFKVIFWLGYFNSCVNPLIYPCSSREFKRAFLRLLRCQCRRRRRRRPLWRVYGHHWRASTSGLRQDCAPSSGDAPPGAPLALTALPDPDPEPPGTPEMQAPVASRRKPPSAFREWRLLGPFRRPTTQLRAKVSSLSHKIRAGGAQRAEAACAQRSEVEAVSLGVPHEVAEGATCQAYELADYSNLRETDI

[2] = molecular target: T2, human α1B-adrenoceptor (Homo sapiens, UniProt P35368); experiment: [3H]prazosin whole-cell competition binding, CHO-α1B cells; conditions: for IC50: read-out: Log IC50 α1B (converted)
T2 construct: CHO cells stably expressing either the full‐length human α1A, α1B, or α1D‐adrenoceptor
T2 sequence (P35368 1-520): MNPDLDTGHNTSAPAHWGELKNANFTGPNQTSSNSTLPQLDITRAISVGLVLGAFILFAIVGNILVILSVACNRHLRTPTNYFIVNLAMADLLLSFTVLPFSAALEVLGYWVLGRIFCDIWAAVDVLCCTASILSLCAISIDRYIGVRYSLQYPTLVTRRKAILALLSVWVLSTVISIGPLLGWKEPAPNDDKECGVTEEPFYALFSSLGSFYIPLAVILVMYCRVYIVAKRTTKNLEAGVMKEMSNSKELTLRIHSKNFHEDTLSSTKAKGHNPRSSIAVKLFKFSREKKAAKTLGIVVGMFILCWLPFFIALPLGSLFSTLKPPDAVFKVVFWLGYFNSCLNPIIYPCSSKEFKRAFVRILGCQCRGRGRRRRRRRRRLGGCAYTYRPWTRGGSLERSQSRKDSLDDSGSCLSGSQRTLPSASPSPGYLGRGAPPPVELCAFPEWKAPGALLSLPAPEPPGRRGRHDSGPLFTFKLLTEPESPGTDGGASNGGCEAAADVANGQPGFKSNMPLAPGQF

[3] = molecular target: T3, human α1A-adrenoceptor (Homo sapiens, UniProt P35348); experiment: [3H]prazosin whole-cell competition binding, CHO-α1A cells; conditions: for Selectivity ratio α1A vs α1D / Selectivity ratio α1A vs α1B: ratio of KD values, 1.0 under vs = none; for Selectivity ratio α1A vs α1D: higher α1A affinity; for Selectivity ratio α1A vs α1B: printed under α1A = higher α1A affinity
T3 construct: CHO cells stably expressing either the full‐length human α1A, α1B, or α1D‐adrenoceptor
T3 sequence (P35348 1-466): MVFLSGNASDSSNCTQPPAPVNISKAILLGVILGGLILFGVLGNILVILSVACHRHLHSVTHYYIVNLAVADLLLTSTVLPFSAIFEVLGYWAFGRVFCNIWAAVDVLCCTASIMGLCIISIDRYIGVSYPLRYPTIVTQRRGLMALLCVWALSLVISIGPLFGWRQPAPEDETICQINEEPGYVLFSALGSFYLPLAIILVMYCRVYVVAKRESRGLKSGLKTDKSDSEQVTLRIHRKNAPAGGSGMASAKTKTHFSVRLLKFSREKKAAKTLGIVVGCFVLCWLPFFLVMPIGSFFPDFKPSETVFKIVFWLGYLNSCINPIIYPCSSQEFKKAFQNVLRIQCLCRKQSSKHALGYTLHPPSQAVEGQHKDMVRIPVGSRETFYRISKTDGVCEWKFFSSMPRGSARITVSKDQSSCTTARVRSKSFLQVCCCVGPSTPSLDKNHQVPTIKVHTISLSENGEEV

[4] = Log KD α1D, single-component inhibition curve, given as log KD (negative), mean ± SE mean
[5] = single-component inhibition curve, given as log KD (negative), mean ± SE mean, read-out: Log KD α1B (converted)
[6] = single-component inhibition curve, given as log KD (negative), mean ± SE mean
[7] = ratio, 1 = no selectivity for a subtype over another
[8] = selectivity ratio, 1 = no selectivity for a given receptor subtype over another
[9] = percentage of inhibition through first component, control
[10] = two-component inhibition curve, proportion of site 1
[11] = log KD from 3H-prazosin whole cell binding, CHO cells, mean ± s.e.mean
[12] = Log KD α1D site 1, high-affinity component of two-component curve, control, used for selectivity
[13] = low-affinity component of two-component curve, control

O=c1[nH]c2ccccc2n1C1CCN(CCCC(c2ccc(F)cc2)c2ccc(F)cc2)CC1 [Pimozide]
Kd [1, 4]: 1120 nM
Kd [2, 5]: 162 nM

COc1cccc2c1CCC[C@H]2CN(C)CCc1ccc2ccoc2c1.CS(=O)(=O)O [A80426]
Selectivity ratio α1B vs α1D ([1]; ratio of KD values, higher α1D affinity (site 1 KD)): 1.0 fold
Log KD α1D [1, 6]: −6.07 ± 0.07
Selectivity ratio α1A vs α1D [3]: 3.1 fold
Selectivity ratio α1A vs α1B [3]: 3.1 fold
selectivity α1A vs 1D [3, 7]: 3.1
selectivity α1A vs α1B [3, 7]: 3.1
selectivities α1A vs α1B [3, 8]: 3.1
selectivities α1A vs α1D [3, 8]: 3.1
Log KD α1A [3, 6]: −6.57 ± 0.05
selectivity α1B vs α1D [2, 7]: 1.0
Log KD α1B [2, 6]: −6.08 ± 0.02

O=C1NCCN1CCN1CCC(c2cn(-c3ccc(F)cc3)c3ccc(Cl)cc23)CC1 [Sertindole]
Kd [1, 4]: 117 nM
Selectivity ratio α1A vs α1D [3]: 219 fold
Selectivity ratio α1A vs α1B [3]: 9.8 fold
Kd ([3]; single-component inhibition curve, given as log KD (negative), mean ± SE mean, read-out: Log KD α1A (converted)): 0.537 nM
Selectivity ratio α1B vs α1D ([2]; ratio of KD values, higher α1B affinity, 1.0 under vs = none): 22 fold
Kd [2, 5]: 5.25 nM

CN(C)CCCC1(c2ccc(F)cc2)OCc2cc(C#N)ccc21 (stereo not drawn) [Citalopram]
Kd [1, 4]: 12300 nM
IC50 [2]: > 100 µM

CC(C)NCC(O)COc1cccc2ccccc12 (stereo not drawn) [Propranolol]
Kd [1, 4]: 12900 nM
Kd ([2]; app: top concentration inhibited most but not all specific binding, curve extrapolated, read-out: Log KD α1B (apparent) (converted)): 105000 nM

COc1ccccc1N1CCN(CCN2C(=O)CC3(CCCC3)CC2=O)CC1 [BMY7378]
% site 1 α1D [1, 9]: 57.7 ± 2.6% site 1
% site 1 α1D [1, 10]: -8.60 ± 0.13 -5.93 ± 0.37 57.7 ± 2.6% site 1
Kd [2, 5]: 589 nM

COc1cc2nc(N3CCN(C(=O)COc4c(OC)cccc4C(C)C)CC3)nc(N)c2cc1OC [Rec15-2615]
Log KD α1D [1, 11]: -7.89 ± 0.07

COCCCC/C(=N\OCCN)c1ccc(C(F)(F)F)cc1 [Fluvoxamine]
Kd [1, 4]: 10700 nM
IC50 [2]: > 100 µM

CN1CCN(CCCN2c3ccccc3Sc3ccc(Cl)cc32)CC1 [Prochlorperazine]
Kd [1, 4]: 295 nM
Kd [2, 5]: 132 nM

O=c1n(CCCN2CCN(c3cccc(Cl)c3)CC2)nc2ccccn12 [Trazodone]
Kd [1, 4]: 417 nM
Kd [2, 5]: 275 nM

COc1ccccc1N1CCN(CCn2c(=O)[nH]c3c([nH]c4ccccc43)c2=O)CC1 [3-MPPI]
Log KD α1A [3, 11]: -9.57 ± 0.06
Log KD α1B [2, 11]: -8.59 ± 0.03

COc1cc2nc(N(C)CCCNC(=O)C3CCCO3)nc(N)c2cc1OC (stereo not drawn) [Alfuzosin]
Kd [1, 4]: 21.9 nM
Kd [2, 5]: 27.5 nM

CNCCCN1c2ccccc2CCc2ccccc21 [Desipramine]
Kd [1, 4]: 3470 nM
Kd [2, 5]: 2690 nM

COc1ccccc1N1CCN(CCn2c(=O)[nH]c3c([nH]c4ccccc43)c2=O)CC1 [3‐MPPI]
Log KD α1A [3, 6]: −9.57 ± 0.06
Log KD α1B [2, 6]: −8.59 ± 0.03

COc1ccccc1OCCNCC(O)COc1cccc2[nH]c3ccccc3c12 (stereo not drawn) [Carvedilol]
Kd [1, 4]: 13.5 nM

CNCC[C@H](Oc1cccc2ccccc12)c1cccs1 [Duloxetine]
Kd [1]: 2630 nM
Kd ([2]; read-out: Log KD α1B (apparent) (converted)): 19500 nM

O=C1CCc2ccc(OCCCCN3CCN(c4cccc(Cl)c4Cl)CC3)cc2N1 [Aripiprazole]
Kd [1, 4]: 708 nM

CN1CCN(CCCN2c3ccccc3Sc3ccc(C(F)(F)F)cc32)CC1 [Trifluoperazine]
Kd [1, 4]: 437 nM
Kd [2, 5]: 132 nM

OCCN1CCN(CCCN2c3ccccc3Sc3ccc(Cl)cc32)CC1 [Perphenazine]
Kd [1, 12]: 13.8 nM
Log KD α1D site 2 [1, 13]: −6.03 ± 0.19
% site 1 α1D [1, 9]: 53.3 ± 4.1% site 1
% site 1 α1D [1, 10]: -7.86 ± 0.10 -6.03 ± 0.19 53.3 ± 4.1% site 1
Kd [2, 5]: 37.2 nM

COc1cc2nc(N3CCN(C(=O)C4CCCO4)CC3)nc(N)c2cc1OC (stereo not drawn) [Terazosin]
Kd [1, 4]: 19.5 nM

COc1cc2nc(N3CCN(C(=O)COc4c(OC)cccc4C(C)C)CC3)nc(N)c2cc1OC [Rec15‐2615]
Log KD α1D [1, 6]: −7.89 ± 0.07

CC(COc1ccccc1)N(CCCl)Cc1ccccc1 (stereo not drawn) [Phenoxybenzamine]
Kd [1]: 3.72 nM
Log KD α1D site 2 [1, 13]: −5.42 ± 0.08
% site 1 α1D [1, 10]: -8.43 ± 0.19 -5.42 ± 0.08 39.1 ± 2.0% site 1
Kd ([2]; high-affinity component of two-component curve, control, read-out: Log KD α1B site 1 (converted)): 20.4 nM
Log KD α1B site 2 [2, 13]: −5.57 ± 0.06
% site 1, α1B ([2]; share of site 1 in the two-component inhibition curve): -7.69 ± 0.06 -5.57 ± 0.06 67.5 ± 2.5% site 1
% site 1, α1B [2, 10]: -7.69 ± 0.06 -5.57 ± 0.06 67.5 ± 2.5% site 1

CN(C)CCC=C1c2ccccc2COc2ccccc21 [Doxepin]
Kd [1, 4]: 537 nM
Kd [2, 5]: 661 nM

OCCOCCN1CCN(C2=Nc3ccccc3Sc3ccccc32)CC1 [Quetiapine]
Kd [1, 4]: 331 nM
Kd [2, 5]: 61.7 nM

O=C1[C@@H]2[C@H]3CC[C@H](C3)[C@@H]2C(=O)N1C[C@@H]1CCCC[C@H]1CN1CCN(c2nsc3ccccc23)CC1 [Lurasidone]
Kd [1, 12]: 6.46 nM
Log KD α1D site 2 [1, 13]: −5.92 ± 0.06
% site 1 α1D [1, 9]: 24.8 ± 3.1% site 1
% site 1 α1D [1, 10]: -8.19 ± 0.10 -5.92 ± 0.06 24.8 ± 3.1% site 1
Kd [2, 5]: 67.6 nM

CC(CN(C)C)CN1c2ccccc2CCc2ccccc21 (stereo not drawn) [Trimipramine]
Kd [1, 4]: 1020 nM
Kd [2, 5]: 794 nM

Fc1ccc([C@@H]2CCNC[C@H]2COc2ccc3c(c2)OCO3)cc1 [Paroxetine]
Kd [1, 4]: 2340 nM
IC50 [2]: > 10 µM

CN(C)CCCN1c2ccccc2Sc2ccc(Cl)cc21 [Chlorpromazine]
% site 1 α1D [1, 9]: 56.0 ± 5.0% site 1
Kd [2, 5]: 14.5 nM

COc1cccc(OC)c1OCCNCC1COc2ccccc2O1 (stereo not drawn) [WB4104]
Log KD α1A [3, 6]: −9.03 ± 0.04

CCOc1ccccc1OCCN[C@H](C)Cc1ccc(OC)c(S(N)(=O)=O)c1 [Tamsulosin]
Log KD α1D site 2 [1]: −5.67 ± 0.15
Log KD α1D site 2, +1 mmol/L sodium thiosulphate [1]: −5.60 ± 0.08
effect of sodium thiosulfate preincubation on binding ([1]; 1 mmol/L sodium thiosulfate, tamsulosin at all three receptors (Table 2)): no effect
Kd ([1]; Log KD α1D site 1, +1 mmol/L sodium thiosulphate, two-component curve, high-affinity component): 0.776 nM
Kd [1, 12]: 0.661 nM
% site 1 α1D, +1 mmol/L sodium thiosulphate ([1]; two-component curve): 44.0 ± 2.8%
% site 1 α1D [1, 10]: -9.18 ± 0.08 -5.67 ± 0.15 54.6 ± 3.7% site 1
Kd ([2]; Log KD α1B, +1 mmol/L sodium thiosulphate, ligand preincubated 30 min with thiosulphate, single-component curve (column Log KD site 1)): 7.41 nM
Kd [2, 5]: 7.59 nM

CN1CCN2c3ncccc3Cc3ccccc3C2C1 (stereo not drawn) [Mirtazepine]
Log KD α1B [2, 6]: −5.36 ± 0.03

CNCCC(Oc1ccc(C(F)(F)F)cc1)c1ccccc1 (stereo not drawn) [Fluoxetine]
Kd [1, 4]: 12600 nM

Cc1ccc(N(CC2=NCCN2)c2cccc(O)c2)cc1 [Phentolamine]
% site 1 α1D [1, 9]: 60.5 ± 3.8% site 1

CC(C)C[C@H]1C(=O)N2CCC[C@H]2[C@]2(O)O[C@](NC(=O)[C@@H]3C=C4c5cccc6[nH]c(Br)c(c56)C[C@H]4N(C)C3)(C(C)C)C(=O)N12 [Bromocriptine]
Kd [1]: 49 nM
Kd [2, 5]: 11 nM

O=c1[nH]c2ccccc2n1CCCN1CCC(n2c(=O)[nH]c3cc(Cl)ccc32)CC1 [Domperidone]
Kd [1, 4]: 1050 nM
Kd [2, 5]: 3160 nM
